In article PMC9256669, “Monomethyl auristatin antibody and peptide drug conjugates for trimodal cancer chemo-radio-immunotherapy” (Nature Communications, 2022):
Values joined by “and” are separate entries in the source; they are usually repeats but may differ in a detail not shown here. Identical values can stand only once. “Also recorded” adds a separate entry of the source. Non-standard residues stand in square brackets, D forms with d. Residues, ends and D or L forms follow the SMILES beside them. *: point of attachment. Dolaproine = CO[C@@H]([C@@H]1CCCN1)[C@@H](C)C(=O)O; Dil = CC[C@H](C)[C@H](NC)[C@@H](CC(=O)O)OC; X1 = C[C@@H](N*)[C@@H](O)c1ccccc1; NMeV = CN[C@H](C(=O)O)C(C)C

How the values were obtained:
MOC2 = test: Cytotoxicity, Alamar Blue assay; format: cell-based, murine; details: MOC2, 72 h drug exposure, one value per biological replicate, read-out: IC50 values
Protocol: Murine colorectal (MC38 (ENH204-FP)) cancer cell lines were obtained from Kerafast. Murine head and neck MOC1 and MOC2 were generously provided by Dr. R. Uppaluri. CAL27 PIK3CA H1047R expressing cells and 4MOSC1 cells were generated in Dr. Gutkind’s laboratory and previously characterized[42],[55]. […] MC38 cells were cultured in DMEM supplemented with 10% FBS, 1 mM sodium pyruvate (Gibco), 1% non-essential amino acids (Gibco), and 10 mM HEPES (Gibco). MOC1 and MOC2 cells were cultured in IMDM (Lonza)/F-12K nutrient mixture at a 2:1 mixture with 5% FBS, 5 ng/ml EGF (EMD Millipore), 400 ng/ml hydrocortisone (Sigma), and […] insulin (Sigma). On receipt, each cell line was expanded, cryopreserved as low passage stocks, and routinely tested for mycoplasma. Cisplatin (Enzo Biosciences), paclitaxel (Sigma), and MMAE (Concortis) were reconstituted in DMSO. […] Clinical grade cetuximab (Erbitux, Lilly Medical) was obtained from UCSD Moores Cancer Center Pharmacy.
Cells were plated in 96-well plates and exposed to a drug concentration range for 72 h. Alamar Blue was added to the cells and allowed to incubate for 2–4 h at 37 °C. Plates were analyzed using a plate reader with fluorescence measured at 560 nm. Fractional survival was normalized to untreated control cell fluorescent values. Drug IC50 was calculated using Prism software (GraphPad, La Jolla, CA). Cell viability, cytotoxicity and apoptosis were also measured by ApoTox-Glo Triplex Assay (Promega).
measured by Alamar Blue assay. For Alamar Blue assay cytotoxicity, we measured cell viability at 72 hr of […]

B16 cells = test: NanoString PanCancer IO 360 gene expression and gene set analysis of MMAE-treated cells; format: cell-based, murine
Protocol: RNA was isolated from cells or tumor tissues and comprehensive immune profiling was analyzed using the NanoString PanCancer IO 360 Panel and NanoString nCounter PanCancer Mouse Immune Profiling gene expression platforms. Gene set analysis with calculated global significance scores and directed significance scores were calculated for treated cells. The Advanced Analysis module of the nSolver software was used to analyze genes associated with listed immune cells in tumors and given a Z-score (n = 3 mice per group). Expression levels of GZMB were analyzed using real-time quantitative PCR. Reverse transcription was performed with the iScript cDNA synthesis kit (Biorad), using aliquots of total RNA extracted with RNeasy Plus Mini Kit (Qiagen). Gene-specific primers were GZMB-F […] and GZMB-R […]. Real-time PCR reactions were performed using the CFX Connect Real-Time PCR System (Biorad) and the amplifications were done using the iTaq Universal SYBR Green Supermix (Biorad). qPCR data were analyzed using the Bio-Rad CFX Maestro software. […]
a Undirected Directed Enrichment
Pathway # of Genes Enrichment Score Score
Gene Name Supplementary Figure 1: Gene
Mdm2 expression analysis of MMAE treated
Casp3 cells. B16 cells exposed to 5 nM MMAE for
Bcl2l1 72 hrs. RNA collected and analyzed using Cd68 murine NanoString PanCancer IO 360
Thbs1 Panel. a) Gene set analysis with calculated
Gls global significance scores and directed
Fstl3 significance scores. b) Heatmap depicting
Mfge8 2 differential gene expression of 36 genes
Brd3 1 control and MMAE treated cells. Source
Pias4 0 data are provided in Source Data file under
Fzd9 tab labeled Figure 1b.
Supplementary Data 1: Complete NanoString expression data of Figure 1b. Untreated control (n=2) and 5 nM MMAE treated (n=3) B16 cells were harvested at 72 hrs. RNA was collected and analyzed using NanoString PanCancer IO 360 Panel. Individual normalized RNA expression values shown for each gene. […]

[1] = test system: orthotopic oral 4MOSC1 tumors; test: Trimodal therapy: ACPP-MMAE, IR and anti-PD-1 antibody; format: in vivo, C57BL/6 mice; details: Figure 5c; individual mice, one line per mouse
Source text: Orthotopic tongue xenograft tumors were established in 6-week-old NOD SCID mice by injecting 150,000 CAL27 parental (WT) or PIK3CA H1047R-expressing cells. […] On the last day of tumor xenograft measurements, mice were euthanized, tongues resected, imaged, and fixed. […] IR was delivered as 2 parallel opposed fields.

B16 tumors = test: Subcutaneous tumor therapy, CDX3379-MMAE or CDX3379-MMAF with IR, mouse survival; format: in vivo, C57BL/6 mice
Protocol: MOC1, B16, LL/2, and MC38 tumor cells were injected subcutaneously into the hindlimbs of 6-week-old female C57BL/6 albino mice in 100 µl of 1:1 Matrigel (BD) and PBS solution. Fractionated IR was delivered focally to the tumor-bearing hindlimbs (3 Gy to MC38 tumors and 5 Gy to LL/2 and B16 tumors) as indicated in figure legends using a PXI X-RAD 225 XL irradiator at maximal dose rate of 3 Gy/min with a beam-conditioning aluminum filter (Precision X-ray Irradiation). For RAG1 KO studies, 6-week-old female Rag1^tm1Mom mice were injected subcutaneously with tumor cells in their hindlimbs (Jackson Labs). For CD8 depletion studies, mice were i.p. injected with anti-CD8 (BioXCell #BE0117) at 10 mg/kg on days −6, −5 and −4 tumor cell implant and then weekly starting on day after tumor cells were injected or control antibody. […] Tumor volumes were measured and calculated using the formula as ½ * length * width^2. Mice were sacrificed when tumor volume reached >1500 mm^3, maximal tumor volume approved on our protocol for subcutaneous tumors.

[2] = 5 nM MMAE 72 hrs, gene set analysis
[3] = 5 nM MMAE 72 hrs, samples MMAE_5, MMAE_1, MMAE_3

Molecule: CC[C@H](C)[C@@H]([C@@H](CC(=O)N1CCC[C@H]1[C@H](OC)[C@@H](C)C(=O)N[C@H](C)[C@@H](O)c1ccccc1)OC)N(C)C(=O)[C@@H](NC(=O)[C@@H](NC)C(C)C)C(C)C [MMAE, monomethyl auristatin E] (H-[NMeV]V[Dil][Dolaproine]-X1)
- IC50 (MOC2): 0.00929 µM and 0.0111 µM
- Directed Enrichment Score: Angiogenesis (B16 cells; [2]): 1.8412
- Directed Enrichment Score: Antigen Presentation (B16 cells; [2]): 0.8121
- Directed Enrichment Score: Apoptosis (B16 cells; [2]): 0.9856
- Directed Enrichment Score: Autophagy (B16 cells; [2]): -3.279
- Directed Enrichment Score: Cell Proliferation (B16 cells; [2]): -0.7774
- Directed Enrichment Score: Costimulatory Signaling (B16 cells; [2]): -1.9366
- Directed Enrichment Score: Cytokine and Chemokine Signaling (B16 cells; [2]): -1.4236
- Directed Enrichment Score: Cytotoxicity (B16 cells; [2]): 0.8779
- Directed Enrichment Score: DNA Damage Repair (B16 cells; [2]): -1.9501
- Directed Enrichment Score: Epigenetic Regulation (B16 cells; [2]): -1.7988
- Directed Enrichment Score: Hedgehog Signaling (B16 cells; [2]): -2.2414
- Directed Enrichment Score: Hypoxia (B16 cells; [2]): -2.4508
- Directed Enrichment Score: Immune Cell Adhesion and Migration (B16 cells; [2]): -1.0133
- Directed Enrichment Score: Interferon Signaling (B16 cells; [2]): 0.9986
- Directed Enrichment Score: JAK-STAT Signaling (B16 cells; [2]): -1.657
- Directed Enrichment Score: Lymphoid Compartment (B16 cells; [2]): 0.8253
- Directed Enrichment Score: MAPK (B16 cells; [2]): -1.437
- Directed Enrichment Score: Matrix Remodeling and Metastasis (B16 cells; [2]): 1.1775
- Directed Enrichment Score: Metabolic Stress (B16 cells; [2]): -2.3196
- Directed Enrichment Score: Myeloid Compartment (B16 cells; [2]): 0.1922
- Directed Enrichment Score: NF-kappaB Signaling (B16 cells; [2]): -0.7242
- Directed Enrichment Score: Notch Signaling (B16 cells; [2]): -1.0152
- Directed Enrichment Score: PI3K-Akt (B16 cells; [2]): -1.358
- Directed Enrichment Score: TGF-beta Signaling (B16 cells; [2]): -2.2971
- Directed Enrichment Score: Wnt Signaling (B16 cells; [2]): -2.3166
- Undirected Enrichment Score: Angiogenesis (B16 cells; [2]): 2.7066
- Undirected Enrichment Score: Antigen Presentation (B16 cells; [2]): 1.2276
- Undirected Enrichment Score: Apoptosis (B16 cells; [2]): 2.3071
- Undirected Enrichment Score: Autophagy (B16 cells; [2]): 3.5536
- Undirected Enrichment Score: Cell Proliferation (B16 cells; [2]): 2.1596
- Undirected Enrichment Score: Costimulatory Signaling (B16 cells; [2]): 2.2732
- Undirected Enrichment Score: Cytokine and Chemokine Signaling (B16 cells; [2]): 1.9551
- Undirected Enrichment Score: Cytotoxicity (B16 cells; [2]): 1.637
- Undirected Enrichment Score: DNA Damage Repair (B16 cells; [2]): 2.4043
- Undirected Enrichment Score: Epigenetic Regulation (B16 cells; [2]): 2.4405
- Undirected Enrichment Score: Hedgehog Signaling (B16 cells; [2]): 3.1229
- Undirected Enrichment Score: Hypoxia (B16 cells; [2]): 2.9454
- Undirected Enrichment Score: Immune Cell Adhesion and Migration (B16 cells; [2]): 1.8838
- Undirected Enrichment Score: Interferon Signaling (B16 cells; [2]): 1.5239
- Undirected Enrichment Score: JAK-STAT Signaling (B16 cells; [2]): 2.5395
- Undirected Enrichment Score: Lymphoid Compartment (B16 cells; [2]): 1.1946
- Undirected Enrichment Score: MAPK (B16 cells; [2]): 2.756
- Undirected Enrichment Score: Matrix Remodeling and Metastasis (B16 cells; [2]): 2.3587
- Undirected Enrichment Score: Metabolic Stress (B16 cells; [2]): 2.8728
- Undirected Enrichment Score: Myeloid Compartment (B16 cells; [2]): 1.2711
- Undirected Enrichment Score: NF-kappaB Signaling (B16 cells; [2]): 1.6264
- Undirected Enrichment Score: Notch Signaling (B16 cells; [2]): 2.5438
- Undirected Enrichment Score: PI3K-Akt (B16 cells; [2]): 2.7297
- Undirected Enrichment Score: TGF-beta Signaling (B16 cells; [2]): 3.339
- Undirected Enrichment Score: Wnt Signaling (B16 cells; [2]): 3.1574
- NanoString scores: Bcl2l1 (B16 cells; [3]): 0.4361 and 0.5098 and 0.454
- NanoString scores: Cd68 (B16 cells; [3]): 1.981 and 1.6572 and 1.978
- NanoString scores: Mdm2 (B16 cells; [3]): 0.6422 and 0.6786 and 0.4527
- pathways downregulated by MMAE (gene set analysis) (B16 cells; downregulated pathways / all pathways): 17/25

Molecule: cyclo(RGD)fc-MC-HN-peg8-e9-oPLGC(Me)AG-r9-c-(MC-VC-PABC-MMAE)-CONH2 [ACPP-MMAE]
- Mouse survival: status at the day given (Mouse dead = 1, Mouse alive = 0) [1]: 1

Molecule: CDX3379-MMAE: anti-HER3 antibody CDX3379 with 4 MMAE per antibody via MC-VC-PABC linker, labeled with Cy5
- tumor control and survival, + IR (B16 tumors; B16, 2.5 nmoles ADC x 2 doses + IR 5 Gy x 3): prolonged tumor control and survival; also recorded: superior to CDX3379-MMAF
- Mouse survival, status (B16 tumors; with IR, individual mice, status at the day, Figure 3h): 1 and 0
